Test system: European D614G strain of SARS-CoV-2 (BavPat1/2020)
Assay type: cell-based

Question: With `O=C(Nc1ccc([N+](=O)[O-])cc1Cl)c1cc(Cl)ccc1O` [niclosamide ethanolamine] as the compound, how does the “reduction of intracellular viral RNA level compared to non-treated control” value read?
Answer: 3 fold
